Series [1] is described as follows: Solubility of SN-38 pro-drug complex in comparison with SN-38. Type of series: physicochemical. The text has this:
The solubility of SN-38 pro-drug complex
[drawing 23] in comparison with SN-38 was investigated.

For series [2], the system named is breast cancer cell line SKBR3. Kind of series: Effect on cell growth with or without recombinant human DT-Diaphorase (DTD) in the growth medium, SKBR3 cells. Type of series: cell-based. The text has this: (§1) The redox-coupled release of free SN38 from the SN-38 pro-drug complex
(§2) [drawing 24] using the enzyme DT-Diaphorase (DTD) was investigated. DTD is a cytosolic oxidoreductase which catalyzes the two-electron reduction of quinones using NADH or NADPH as electron donors (see, e.g., Phillips et al, Biochemical Pharmacology 68: 2107-2116 (2004); herein incorporated by reference in its entirety). As the DTD-induced reduction of quinones is known to take place even under normoxic conditions, the enzyme is used as a positive control for testing the release of drugs from quinone-linked drugs. Synthesized SN-38 pro-drug complex was incubated with recombinant human DTD (Sigma) added into the cell growth medium in the presence of different concentration of the SN-38 pro-drug complex. The effect of the drug on cell growth was determined in two different human cell lines, the cervical carcinoma cell line KB, and the breast cancer cell line SKBR3.

Series [3] deals with cervical carcinoma cell line KB. Kind of series: Effect on cell growth with or without recombinant human DT-Diaphorase (DTD) in the growth medium, KB cells. Format: cell-based.
Source text: as §1, §2

[4] abbreviates: absence of DTD, up to 300 nM prodrug.

In brackets after ≈: the same amount, converted by molar mass. Read-outs that look alike come from different tables or passages of the source.

The text below walks through data of patent US8853151B2, “Pro-drug complexes and related methods of use” (The Regents of the University of Michigan, priority 2009, dated 2014).

As usually defined, the solubility is how much of the substance goes into solution per volume.

In turn, `CCc1c2c(nc3ccc(O)cc13)-c1cc3c(c(=O)n1C2)COC(=O)[C@]3(O)CC` [SN38, 7-Ethyl-10-hydroxy-camptothecin, reference compound] displayed a solubility in series [1] (water) of around 2 µg/mL (≈ 5.1 µM).
On to `CCc1c2c(nc3ccc(OC(=O)N(C)CCN(C)C(=O)OCc4c5c(n(CC(=O)NCCOCCOCCOCCn6cc(CCC(=O)CCCC(=O)NCCCCC7NC(=O)[C@@H](Cc8ccc(O)cc8)NC(=O)[C@H](CC(=O)O)NC(=O)CNC(=O)[C@H](CCCNC(=N)N)NC7=O)nn6)c4C)C(=O)C=C(OC)C5=O)cc13)-c1cc3c(c(=O)n1C2)COC(=O)[C@]3(O)CC` (stereo partly shown) [SN-38 pro-drug complex], for which the cytotoxicity result in series [2] (setting [4]) and in series [3] (setting [4]) was “essentially non-cytotoxic” throughout. Also, the “cytotoxicity on redox-mediated activation (FIG. 9)” value in series [2] (redox-mediated activation) was “leads to SKBR3 cell cytotoxicity”. In addition, the “cytotoxicity on redox mediated activation (FIG. 8)” value in series [3] (redox mediated activation) is on record as “leads to KB cell cytotoxicity”. Further, the solubility in series [1] (in water, read-out: solubility) amounted to 100 µg/mL. The “solubility compared with SN38” value in series [1] (ratio pro-drug complex / SN38) is “>= 50 times”.
